Assay results published in patent US20100130449A1, “Use of Tri-Substituted Glycerol Compounds for the Treatment of Radiation Injuries” (ALPHAPTOSE GMBH, priority 2006, published 2010).

How the values were obtained:
Format in all cases: in vivo
X-ray irradiated mice = experiment: Survival of X-ray irradiated mice, ET18-OCH3 given after irradiation; conditions: for Death/Survival treated: 2 × 25 mg/kg intravenous 6 hours and 12 hours after irradiation
Method: The efficacy of 1-O-octadecyl-2-O-methyl-glycero-3-phosphocholine (in the following referred to as “ET18-OCH3”) as a radioprotectant in the treatment of an acute radiation injury that is caused by (mid)lethal radiation doses was analyzed by determining its influence on the survival rate of mice and on the hematological syndrome of the radiation injury in response to different types of radiation.
A single dose of 25 mg/kg ET18-OCH3 was administered at a time intravenously to 25 mice 12 hours after exposure to an X-ray dose of 650 cGy (centiGray). Only one of the 25 treated mice died, as compared to 6 of the 25 mice in the control group.
After an intravenous administration of 25 mg/kg ET18-OCH3 6 hours and 12 hours after X-ray irradiation, respectively, the following results were obtained (Table 1). The chi-square distribution is given for all positive values. The chi-square test was used for comparing the results of the treated versus the control animals.
After an oral administration of 25 mg/kg ET18-OCH3 6 hours and 24 hours after exposure to a X-ray dose of 700 cGy X-ray irradiation, respectively, 2 of 25 treated animals died, as compared to 7 of 25 of the control animals.

neutron irradiated mice [1] = experiment: Survival of mice after neutron radiation, ET18-OCH3 given after irradiation; conditions: 400-420 cGy neutron radiation, 50 mg/kg subcutaneous
Method: Mice were irradiated using a van de Graaf generator with of 3-8 MeV neutrons. The radiation doses used in the following analyses were 400, 410, and 420 cGy for each third of the treated and the control mice, respectively. A single dose of 50 mg/kg ET18-OCH3 was administered to half of the mice by subcutaneous injection.

gamma-radiated mice [2] = experiment: Survival of mice after gamma irradiation, single dose of ET18-OCH3 before or after irradiation
neutron irradiated mice [3] = experiment: Cell numbers in the peripheral blood of mice after neutron irradiation; conditions: for Granulocytes, median/interquartile distance / Leukocytes, median/interquartile distance / Lymphocytes, median/interquartile distance / Thrombocytes, median/interquartile distance: 300 cGy neutron
Method: Mice were irradiated using a van de Graaf generator with of 3-8 MeV neutrons. […] A single dose of 50 mg/kg ET18-OCH3 was administered to half of the mice by subcutaneous injection.
As the therapy experiments were carried out with an irradiation dose range, in which the hematological syndrome of the radiation injury predominates, the evaluation of the therapeutic effect of the drug on the blood forming (hematopoetic) system is important.

neutron irradiated mice [4] = experiment: White blood cell count (hemogram) after ET18-OCH3 and neutron irradiation
Method: FIG. 2 depicts the radioprotective effect of ET18-OCH3 (referred to as “ALP”) on the lymphocyte numbers of mice. Mice were treated with a single dose 70 mg/kg ET18-OCH3 (administered subcutaneously) 24 hours before exposure to neutron radiation (radiation dose 2.0 Gy). […]
FIG. 3 depicts the radioprotective effect of ET18-OCH3 (referred to as “ALP”) on the granulocyte numbers of mice. The experiment was performed in an analogous manner as described in FIG. 2.
The radioprotective effect of ET18-OCH3 on lymphocyte and granulocyte numbers in mice is shown in FIG. 2 and FIG. 3, respectively.

gamma-radiated mice [5] = experiment: Survival of mice after gamma irradiation, single dose of ET18-OCH3 before or after irradiation; remark: listed apart in the source
Method: FIG. 1 depicts the radioprotective effect of ET18-OCH3 on the survival rate of mice. ET18-OCH3 was administered as a single dose of 50 mg/kg body weight to each of 40 mice (20 control mice, 20 test mice). 24 hours later, the 20 test mice were exposed to a gamma radiation dose of 7.9 Gy (Gray) and 8.7 Gy, respectively. The survival rates were monitored for 30 days.

neutron irradiated mice [6] = experiment: Survival of mice, ET18-OCH3 given 1 day before neutron irradiation
Excerpt: The effect of ET18-OCH3 before applying different doses of neutron radiation on the survival rates of mice are summarized in Table 5.

[7] = gamma 750 cGy, 30 mg/kg, a.r. (after radiation)
[8] = gamma 750 cGy, 50 mg/kg, 1 d before irradiation
[9] = gamma 775 cGy, 40 mg/kg, a.r. (after radiation)
[10] = gamma 775 cGy, 50 mg/kg, 2 h before irradiation
[11] = gamma 775 cGy, 50 mg/kg, 1 d before irradiation
[12] = gamma 800 cGy, 40 mg/kg, a.r. (after radiation)
[13] = gamma 800 cGy, 50 mg/kg, 2 h before irradiation
[14] = gamma 830 cGy, 50 mg/kg, 1 d before irradiation
[15] = gamma 870 cGy, 50 mg/kg, 1 d before irradiation
[16] = day 7, 50 mg/kg s.c. 30 min after irradiation
[17] = day 7, 50 mg/kg s.c. 2 h after irradiation
[18] = day 14, 50 mg/kg s.c. 30 min after irradiation
[19] = day 14, 50 mg/kg s.c. 2 h after irradiation
[20] = gamma 790 cGy, 50 mg/kg, 1 d before irradiation
[21] = neutron 425 cGy, 50 mg/kg subcutaneously 1 day before irradiation
[22] = neutron 425 cGy, 70 mg/kg subcutaneously 1 day before irradiation
[23] = neutron 450 cGy, 50 mg/kg subcutaneously 1 day before irradiation
[24] = neutron 450 cGy, 70 mg/kg subcutaneously 1 day before irradiation

## CCCCCCCCCCCCCCCCCCOCC(COP(=O)([O-])OCC[N+](C)(C)C)OC (stereo not drawn) [ET18-OCH3, 1-O-octadecyl-2-O-methyl-glycero-3-phosphocholine]
X-ray irradiated mice; X-ray dose 650 cGy
  Death/Survival treated: 2/28
X-ray irradiated mice; X-ray dose 700 cGy
  Death/Survival treated: 3/25
X-ray irradiated mice; X-ray dose 750 cGy
  Death/Survival treated: 14/16
X-ray irradiated mice; X-ray dose 800 cGy
  Death/Survival treated: 22/8
X-ray irradiated mice; oral 25 mg/kg 6 hours and 24 hours after X-ray dose of 700 cGy, control 7 of 25 died
  treated animals died: 2 of 25
X-ray irradiated mice; single dose 25 mg/kg intravenously 12 hours after X-ray dose of 650 cGy, control 6 of 25 died
  treated mice died: one of the 25
X-ray irradiated mice; treated animals, 25 mg/kg intravenous 6 and 12 hours after irradiation, untreated controls 688.1±38.6
  LD50/30 X-ray dose: 749±37.1 cGy
X-ray irradiated mice; treated mice compared to control mice
  X-ray mediated lethality: delayed
Neutron irradiated mice [1]; 30 min
  Survival/Death: 18 (75%)/6 (25%)
Neutron irradiated mice [1]; 2 h
  Survival/Death: 13 (54%)/11 (46%)
Neutron irradiated mice [1]; 6 h
  Survival/Death: 12 (52%)/11 (48%)
gamma-radiated mice [2]; [7]
  Death: 1 (6%)
  Survival: 17 (94%)
gamma-radiated mice [2]; [8]
  Death: 0
  Survival: 20 (100%)
gamma-radiated mice [2]; [9]
  Death: 12 (60%)
  Survival: 8 (40%)
gamma-radiated mice [2]; [10]
  Death: 5 (25%)
  Survival: 15 (75%)
gamma-radiated mice [2]; [11]
  Death: 2 (10%)
  Survival: 18 (90%)
gamma-radiated mice [2]; [12]
  Death: 10 (29%)
  Survival: 25 (71%)
gamma-radiated mice [2]; [13]
  Death: 3 (15%)
  Survival: 17 (85%)
gamma-radiated mice [2]; [14]
  Death: 3 (15%)
  Survival: 17 (85%)
gamma-radiated mice [2]; [15]
  Survival: 13 (65%)
gamma-radiated mice [2]; treated irradiated mice, ET18-OCH3 one day before irradiation, probit analysis, untreated irradiated controls 7.47 Gy
  LD50/30 gamma radiation dose: 8.98 Gy
Neutron irradiated mice [3]; [16]
  Granulocytes, median/interquartile distance: 209/202
  Leukocytes, median/interquartile distance: 975/450
  Lymphocytes, median/interquartile distance: 684/255
  Thrombocytes, median/interquartile distance: 698/427
Neutron irradiated mice [3]; [17]
  Granulocytes, median/interquartile distance: 240/304
  Leukocytes, median/interquartile distance: 675/413
  Lymphocytes, median/interquartile distance: 446/132
  Thrombocytes, median/interquartile distance: 900/315
Neutron irradiated mice [3]; day 10-15 after irradiation, when the irradiated mice died
  concentration of leukocytes and granulocytes in the peripheral blood: significantly increases
Neutron irradiated mice [3]; [18]
  Granulocytes, median/interquartile distance: 3063/3121
  Leukocytes, median/interquartile distance: 8675/11827
  Lymphocytes, median/interquartile distance: 7439/6942
  Thrombocytes, median/interquartile distance: 533/263
Neutron irradiated mice [3]; [19]
  Granulocytes, median/interquartile distance: 4189/2282
  Leukocytes, median/interquartile distance: 9975/5863
  Lymphocytes, median/interquartile distance: 5101/3765
  Thrombocytes, median/interquartile distance: 987/464
Neutron irradiated mice [4]; 50 mg/kg and 70 mg/kg, neutron irradiation, not statistically significant, 5 experiments, n=90
  reduction of leukocyte numbers (both of lymphocytes and granulocytes) compared to untreated controls: slightly increased
Neutron irradiated mice [4]; leukocyte numbers after neutron irradiation
  difference between the administration of 50 mg/kg and 70 mg/kg: No statistically significant difference
Neutron irradiated mice [4]; starting at day 3 after irradiation, significant at day 7 (4 experiments; n=30, p<0.003)
  leukocyte numbers (both lymphocytes and granulocytes): increase in leukocyte numbers
Neutron irradiated mice [4]; treated animals at mid-lethal irradiation doses, average
  number of lymphocyte relative to the normal value: about one tenth
gamma-radiated mice [5]; [20]
  Death: 2 (10%)
  Survival: 18 (90%)
gamma-radiated mice [5]; [15]
  Death: 7 (35%)
gamma-radiated mice [5]; similar when given either 24 hours or shortly before gamma irradiation
  radioprotective effect on survival: significant radioprotective effect
Neutron irradiated mice [6]; [21]
  Death: 11 (73%)
  Survival: 4 (27%)
Neutron irradiated mice [6]; [22]
  Death: 10 (67%)
  Survival: 5 (33%)
Neutron irradiated mice [6]; [23]
  Death: 8 (26%)
  Survival: 22 (73%)
Neutron irradiated mice [6]; [24]
  Death: 12 (80%)
  Survival: 3 (20%)
Neutron irradiated mice [6]; neutron 475 cGy, 50 mg/kg subcutaneously 1 day before irradiation
  Death: 19 (76%)
